According to patent US11026932B2, “Medicinal composition for preventing or treating inflammatory respiratory disease” (NATIONAL UNIVERSITY CORPORATION OKAYAMA UNIVERSITY, priority 2015, dated 2021):

Legend:
[1] = system: emphysema model mice; experiment: Emphysema model mice (intratracheal swine pancreatic elastase), evaluation of drug efficacy; format: in vivo, female BALB/c mice
Method: <Preparation of Emphysema Mice and Evaluation of Drug Efficacy>
Emphysema mice were prepared in accordance with the following procedures described and used for evaluation of drug efficacy.
Under anesthesia by pentobarbital or isoflurane administration, female BALB/c mice were intratracheally administered with swine pancreatic elastase to prepare (day 0) emphysema models.
Control mice were fed with a food containing bexarotene as an existing RXR full agonist.
On Days 4 and 14, the mice underwent tracheotomy again under anesthesia by pentobarbital or xylazine-ketamine administration, followed by insertion of an endotracheal tube, and static lung compliance was measured using a respiratory function measuring equipment ([…], SIREQ Inc.) for evaluating emphysematous alteration. Static lung compliance is an indication of extensibility of a lung tissue, and static lung compliance is increased in emphysema which is a disease associated with tissue destruction in an alveolar region.
After the procedure 3, the mice were euthanized by exsanguination. After bronchoalveolar lavage, a lung tissue was removed for evaluating emphysema.
The data obtained was analyzed by Anova significance test, in which p<0.05 to an untreated non-emphysema group was indicated by “*”. Furthermore, P<0.05 to an untreated emphysema group was indicated by “#”.

[2] = system: bronchial asthma model mice; experiment: Bronchial asthma model mice (OVA sensitization and inhaled OVA exposure), evaluation of drug efficacy; format: in vivo, female BALB/c mice; details: compared with the untreated group
Method: <Preparation of Bronchial Asthma Mice and Evaluation of Drug Efficacy>
Bronchial asthma mice were prepared and used for evaluation of drug efficacy in accordance with the following procedures.
Female BALB/c mice were systemically sensitized by intraperitoneal administration of ovalbumin (OVA) ([…] of OVA emulsified in 2.25 mg aluminum hydroxide in a total volume of 100 μL) on Day 0 and Day 14, and then was exposed to inhaled OVA by an ultrasonic nebulizer (for 20 min, 3 days: Days 28 to 30), to induce asthma reaction.
From Day 25, the mice were fed with a food containing an RXR agonist (NEt-4IB). On Day 32, the mice underwent tracheotomy under anesthesia by pentobarbital administration, followed by insertion of an endotracheal tube. After the tube was connected to a respiratory function measuring equipment, an airway hyperreactivity (airway resistance) was determined for evaluating airway constriction.
Forty eight hours after the last OVA inhalation exposure, airway hyperreactivity in the mice with an endotracheal tube was measured using a respiratory function measuring equipment (Flexivent, SIREQ Inc.). Here, airway hyperreactivity was induced by inhalation of methacholine.
After the procedure 2, the mice were euthanized by exsanguination. After bronchoalveolar lavage, a lung tissue was removed for evaluating an airway tissue.
Also, for a group fed with a common food as an untreated group, an asthma reaction was induced in the same way for determination of airway hyperreactivity and evaluation of airway inflammation.
Two groups which were not sensitized by an OVA and only exposed to inhaled OVA as non-asthma control groups (an RXR agonist medicated feed group and a common feed group) were also evaluated for airway hyperreactivity and airway inflammation in the same way.
The data obtained was analyzed by Anova significance test, in which p<0.01 and p<0.05 to an untreated non-asthma group were indicated by “**” and “*”, respectively. Furthermore, P<0.05 to an untreated asthma group was indicated by “#”.

[3] = compared to a known RXR full agonist; cited from earlier work
[4] = emphysema model mice, 4 days after elastase administration, compared with drug non-administration group

CCN(c1ccc(OCC(C)C)c(C(C)C)c1)c1ccc(C(=O)O)cn1 [NEt-4IB]
static lung compliance ([1]; emphysema model mice fed food containing compound from Day -4, measured Days 4 and 14, compared with the untreated group): significant improvement | macrophages in cell fraction of bronchoalveolar lavage fluid [1, 4]: significantly reduced | total cell number in cell fraction of bronchoalveolar lavage fluid [1, 4]: significantly reduced | neutrophil number in cell fraction of bronchoalveolar lavage fluid ([1]; emphysema model mice, 4 days after elastase administration, compared with the untreated group): reduction | effect on bronchoalveolar lavage cell numbers compared with the RXR full agonist bexarotene ([1]; emphysema model mice, 4 days after elastase administration, total cell number and macrophages): remarkably higher | average interalveolar distance in lung tissue (emphysematous alteration) ([1]; emphysema model mice, formalin-fixed, HE-stained lung tissue, compared with the untreated group): improvement in emphysematous alteration | anti-inflammatory effect ([1]; emphysema model or bronchial asthma model, repeated oral administration (summary statement)): significant anti-inflammatory effect | IL-5 in supernatant of bronchoalveolar lavage fluid ([2]; ELISA): inhibition | IL-13 in supernatant of bronchoalveolar lavage fluid ([2]; ELISA): inhibition | inflammatory cell infiltration in a local site of the airway, histopathological investigation of the lung tissue ([2]; HE staining): improvement in inflammatory cell infiltration | eosinophil number in cell fraction of bronchoalveolar lavage fluid [2]: reduction | lymphocyte number in cell fraction of bronchoalveolar lavage fluid [2]: reduction | total cell number in cell fraction of bronchoalveolar lavage fluid [2]: reduction

CCN(c1ccc(C(C)C)c(OCC(C)C)c1)c1ccc(C(=O)O)cn1 [NEt-3IB]
increase in triglyceride [3]: reduces increase in triglyceride
